Data taken from ChEMBL document CHEMBL1201862, “PubChem BioAssay data set” (2004).
Calls of active or inactive are those of the source.

Key:
[1] = target: T1, Endoribonuclease toxin MazF (Escherichia coli K-12, UniProt P0AE70); assay: fluorescent RNA oligo signal without MazF, dose response, counter-screen for MazEF activator project, biochemical, fluorescence, single-stranded RNase substrate (AID 588502); format: functional
T1 sequence (P0AE70 whole entry): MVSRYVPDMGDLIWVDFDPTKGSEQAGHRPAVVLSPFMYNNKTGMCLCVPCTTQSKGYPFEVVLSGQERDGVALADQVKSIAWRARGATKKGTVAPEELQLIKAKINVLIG

[2] = target: T1, Endoribonuclease toxin MazF; assay: MazF toxin RNase activators, dose response, biochemical, fluorescence, single-stranded RNA substrate, uHTS hits (AID 588481); format: functional
[3] = target: T2, Protein RecA (Mycobacterium tuberculosis, UniProt P9WHJ3); assay: Fluorescence Cell-Free Homogeneous Dose Retest to Identify Inhibitors of RecA-Intein Splicing Activity. [Related pubchem assays (depositor defined):AID2097, AID2223, AID489010, AID492950]; format: functional
T2 sequence (P9WHJ3 whole entry): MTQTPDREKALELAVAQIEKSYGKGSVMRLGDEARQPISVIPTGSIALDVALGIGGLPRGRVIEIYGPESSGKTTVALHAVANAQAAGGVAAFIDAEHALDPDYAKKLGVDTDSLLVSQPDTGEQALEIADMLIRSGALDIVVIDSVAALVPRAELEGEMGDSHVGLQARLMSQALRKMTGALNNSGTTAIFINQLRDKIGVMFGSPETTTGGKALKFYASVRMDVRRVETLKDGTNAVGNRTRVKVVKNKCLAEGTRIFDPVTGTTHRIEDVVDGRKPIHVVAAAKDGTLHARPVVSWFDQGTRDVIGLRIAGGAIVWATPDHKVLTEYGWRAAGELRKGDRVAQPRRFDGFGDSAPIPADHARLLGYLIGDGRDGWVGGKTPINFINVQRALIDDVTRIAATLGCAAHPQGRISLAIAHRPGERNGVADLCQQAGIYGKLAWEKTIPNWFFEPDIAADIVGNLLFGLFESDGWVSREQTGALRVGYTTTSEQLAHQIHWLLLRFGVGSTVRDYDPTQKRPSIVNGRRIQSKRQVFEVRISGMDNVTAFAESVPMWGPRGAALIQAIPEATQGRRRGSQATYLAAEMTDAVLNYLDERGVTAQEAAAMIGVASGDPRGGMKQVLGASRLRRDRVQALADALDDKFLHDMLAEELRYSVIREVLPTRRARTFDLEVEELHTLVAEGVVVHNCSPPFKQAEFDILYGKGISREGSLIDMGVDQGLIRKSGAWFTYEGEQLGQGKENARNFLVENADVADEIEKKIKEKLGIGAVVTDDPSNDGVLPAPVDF

[4] = MC4R antagonists, dose response, counter-screen for LGR2 antagonist project, cell-based, plate reader, cherry pick (AID 743444); format: functional;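 note: transfected HEK 293 cells stimulated with alpha-MSH peptide; potency of inhibitors of the alpha-MSH evoked signal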
[5] = HepG2 cell cytotoxicity, dose response, cytotoxicity control, plate reader, cherry-pick, antagonist series (AID 743416); format: functional, cell-based
[6] = LGR2 antagonists, dose response, cell-based, HEK293, CRE-luciferase reporter, cherry pick, set 2 (AID 743343); format: functional;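 note: transfected cells were stimulated with diluted bursicon conditioned medium after compound addition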
[7] = HEK293 cell cytotoxicity, dose response, cytotoxicity control, plate reader, cherry-picked samples (AID 743446); format: functional, cell-based
[8] = A549 cell cytotoxicity, dose response, cytotoxicity control, plate reader, cherry-pick, antagonist series (AID 743412); format: functional, cell-based
[9] = target: T3, Replicative DNA helicase DnaB (Mycobacterium tuberculosis, UniProt P9WMR3); assay: DnaB intein splicing inhibitors, dose response, biochemical, cell-free fluorescence (AID 449749); format: functional
T3 sequence (P9WMR3 whole entry): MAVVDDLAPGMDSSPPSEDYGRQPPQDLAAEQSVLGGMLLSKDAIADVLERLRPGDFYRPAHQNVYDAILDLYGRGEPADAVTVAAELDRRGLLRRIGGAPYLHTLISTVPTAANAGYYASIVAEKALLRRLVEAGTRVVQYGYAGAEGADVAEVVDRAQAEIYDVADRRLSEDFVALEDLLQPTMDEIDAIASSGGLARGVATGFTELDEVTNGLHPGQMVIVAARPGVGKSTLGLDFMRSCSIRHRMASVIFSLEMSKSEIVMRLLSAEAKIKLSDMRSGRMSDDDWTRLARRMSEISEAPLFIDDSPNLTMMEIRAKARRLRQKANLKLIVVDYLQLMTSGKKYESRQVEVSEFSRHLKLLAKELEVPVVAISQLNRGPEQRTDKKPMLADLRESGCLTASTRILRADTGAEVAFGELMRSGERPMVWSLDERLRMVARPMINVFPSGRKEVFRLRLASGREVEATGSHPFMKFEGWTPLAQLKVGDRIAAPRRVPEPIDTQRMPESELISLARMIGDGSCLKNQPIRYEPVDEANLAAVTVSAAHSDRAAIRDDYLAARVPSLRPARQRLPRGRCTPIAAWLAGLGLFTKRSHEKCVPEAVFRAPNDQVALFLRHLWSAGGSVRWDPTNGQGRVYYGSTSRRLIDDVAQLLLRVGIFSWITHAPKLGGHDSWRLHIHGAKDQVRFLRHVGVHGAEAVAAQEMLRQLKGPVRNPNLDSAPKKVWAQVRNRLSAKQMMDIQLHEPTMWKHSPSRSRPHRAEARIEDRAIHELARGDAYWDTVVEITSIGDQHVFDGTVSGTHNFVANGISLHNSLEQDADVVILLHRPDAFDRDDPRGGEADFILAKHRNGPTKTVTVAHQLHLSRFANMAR

[10] = Jurkat T cell cytotoxicity, dose response, cytotoxicity control for P. falciparum gametocyte viability project, luminescence (AID 1117277); format: functional, cell-based;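 note: potency reflects loss of cellular ATP meaning fewer viable cells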
[11] = P. falciparum late gametocyte killing, dose response, luminescence (AID 1117278); format: functional, cell-based;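 note: gametocytes exposed to compound for 24 hours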
[12] = system: Vero; assay: cells; format: functional, cell-based; conditions: Chlorocebus sabaeus
[13] = target: T4, High affinity choline transporter 1 (Homo sapiens, UniProt Q9GZV3); assay: CHT inhibitors, dose response, cell-based, 5-point CRC, membrane potential dye (AID 504840); format: functional
T4 sequence (Q9GZV3 whole entry): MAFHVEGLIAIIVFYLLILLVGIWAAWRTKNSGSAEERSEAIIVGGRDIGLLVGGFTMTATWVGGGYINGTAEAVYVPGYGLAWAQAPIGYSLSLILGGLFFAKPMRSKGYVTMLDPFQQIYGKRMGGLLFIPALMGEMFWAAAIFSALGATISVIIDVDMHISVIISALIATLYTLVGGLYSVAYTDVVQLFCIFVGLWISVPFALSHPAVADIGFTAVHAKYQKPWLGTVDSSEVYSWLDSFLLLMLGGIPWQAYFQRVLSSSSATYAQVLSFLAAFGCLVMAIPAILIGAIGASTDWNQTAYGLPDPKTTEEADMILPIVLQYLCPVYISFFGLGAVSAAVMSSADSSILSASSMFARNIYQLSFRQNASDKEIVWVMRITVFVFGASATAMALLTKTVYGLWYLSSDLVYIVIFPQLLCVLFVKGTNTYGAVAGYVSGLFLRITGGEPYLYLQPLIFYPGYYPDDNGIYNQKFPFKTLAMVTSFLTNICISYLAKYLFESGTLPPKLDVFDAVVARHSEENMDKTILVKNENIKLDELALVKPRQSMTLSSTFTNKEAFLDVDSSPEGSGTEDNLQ

[14] = target: T5, Coagulation factor XII (Homo sapiens, UniProt P00748); format: functional;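 note: activated factor XIIa alpha cleaving a fluorogenic AMC peptide substrate; inhibitor potency from loss of enzyme activity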
T5 sequence (P00748 whole entry): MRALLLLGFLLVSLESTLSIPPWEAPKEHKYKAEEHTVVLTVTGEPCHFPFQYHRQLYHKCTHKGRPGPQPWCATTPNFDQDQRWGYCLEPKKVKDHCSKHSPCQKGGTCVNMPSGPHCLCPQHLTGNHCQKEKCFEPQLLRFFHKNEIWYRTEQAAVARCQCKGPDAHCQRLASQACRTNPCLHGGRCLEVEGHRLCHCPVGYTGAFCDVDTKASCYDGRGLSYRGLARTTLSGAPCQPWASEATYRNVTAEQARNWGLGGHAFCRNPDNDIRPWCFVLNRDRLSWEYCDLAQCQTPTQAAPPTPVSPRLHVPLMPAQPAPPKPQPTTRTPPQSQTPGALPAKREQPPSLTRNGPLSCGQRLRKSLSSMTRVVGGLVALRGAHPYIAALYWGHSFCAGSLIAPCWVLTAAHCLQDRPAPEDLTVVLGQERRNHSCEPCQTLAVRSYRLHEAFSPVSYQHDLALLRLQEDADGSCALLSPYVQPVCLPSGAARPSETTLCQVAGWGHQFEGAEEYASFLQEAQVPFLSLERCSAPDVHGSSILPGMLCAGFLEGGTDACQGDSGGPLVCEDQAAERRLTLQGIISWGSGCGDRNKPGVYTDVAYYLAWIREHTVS

[15] = target: Paired box protein Pax-8 (Homo sapiens, UniProt Q06710); assay: inhibitors of PAX8-driven TPO luciferase reporter, dose response, RMG-I cells, cherry-pick (AID 687027); format: functional, cell-based;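 note: luciferase reporter driven by Pax8 target thyroperoxidase promoter measured by SteadyGlo luminescence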
[16] = target: T6, Mannose-6-phosphate isomerase (Homo sapiens, UniProt P34949); assay: human PMI inhibitors, high substrate, primary screen, biochemical, fluorescence intensity, high mannose 6-phosphate (AID 1220)
T6 sequence (P34949 whole entry): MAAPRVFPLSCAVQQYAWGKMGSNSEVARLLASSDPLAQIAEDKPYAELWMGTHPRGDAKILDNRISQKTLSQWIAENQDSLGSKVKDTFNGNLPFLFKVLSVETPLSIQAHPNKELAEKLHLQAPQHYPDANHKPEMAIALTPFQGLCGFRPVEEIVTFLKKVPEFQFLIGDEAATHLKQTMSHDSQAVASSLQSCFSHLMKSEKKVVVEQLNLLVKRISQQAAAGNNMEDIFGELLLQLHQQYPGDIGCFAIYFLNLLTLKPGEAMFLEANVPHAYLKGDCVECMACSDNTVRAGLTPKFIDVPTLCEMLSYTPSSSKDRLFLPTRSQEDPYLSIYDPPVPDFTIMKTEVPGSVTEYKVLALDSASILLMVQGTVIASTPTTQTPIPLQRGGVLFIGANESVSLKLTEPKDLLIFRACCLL

[17] = target: Glyceraldehyde-3-phosphate dehydrogenase (Homo sapiens, UniProt P04406)
Glyceraldehyde-3-phosphate dehydrogenase, sequence (P04406 whole entry): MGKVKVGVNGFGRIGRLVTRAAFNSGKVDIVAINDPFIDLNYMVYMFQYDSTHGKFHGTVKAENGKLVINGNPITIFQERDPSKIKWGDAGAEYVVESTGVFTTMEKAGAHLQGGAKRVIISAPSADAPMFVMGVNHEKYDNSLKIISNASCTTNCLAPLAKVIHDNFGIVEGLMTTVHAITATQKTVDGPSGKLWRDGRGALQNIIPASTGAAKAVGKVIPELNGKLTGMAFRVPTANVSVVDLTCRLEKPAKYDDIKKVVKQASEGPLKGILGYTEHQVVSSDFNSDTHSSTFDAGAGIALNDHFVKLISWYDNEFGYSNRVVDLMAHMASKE

Paired box protein Pax-8, sequence (Q06710 whole entry): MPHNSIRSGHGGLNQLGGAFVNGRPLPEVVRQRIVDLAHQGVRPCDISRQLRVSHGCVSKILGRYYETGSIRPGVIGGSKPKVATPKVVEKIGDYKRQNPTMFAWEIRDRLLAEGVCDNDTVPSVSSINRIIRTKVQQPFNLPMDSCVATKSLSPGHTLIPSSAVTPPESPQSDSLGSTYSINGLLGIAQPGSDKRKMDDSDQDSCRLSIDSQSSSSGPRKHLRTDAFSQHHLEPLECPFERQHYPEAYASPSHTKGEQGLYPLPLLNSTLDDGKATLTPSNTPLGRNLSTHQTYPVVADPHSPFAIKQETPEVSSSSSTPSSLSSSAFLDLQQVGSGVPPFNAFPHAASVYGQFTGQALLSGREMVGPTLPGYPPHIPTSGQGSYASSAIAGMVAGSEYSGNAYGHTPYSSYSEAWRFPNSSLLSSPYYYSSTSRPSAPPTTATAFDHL

CCOc1ccc2c(c1)c1nc3ccccc3nc1n2C
EC50 [1]: > 99 µM (inactive) | EC50 [2]: > 99 µM (inactive)

CN(C(=O)c1ccc(S(=O)(=O)c2cccc(Cl)c2)c([N+](=O)[O-])c1)C1CCCCC1
EC50 [3]: 4.33 µM (active) | AC50 [4]: 7.45 µM (active) | AC50 [5]: 16.2 µM (active) | AC50 [6]: 5.15 µM (active) | AC50 [7]: 13.8 µM (active) | AC50 [8]: 15.8 µM (active) | AC50 [9]: 5.56 µM (active)

Cc1nn(CCCC(=O)O)c(C)c1[N+](=O)[O-]
IC50 [10]: > 83.4 µM (inactive) | IC50 [11]: > 109 µM (inactive)

COc1ccc(NC(=O)[C@H](Cc2c[nH]c3ccccc23)NC(=O)[C@@H]2Cc3ccccc3CN2)cc1
IC50 [12]: 11.8 µM (active)

Cc1ccc(C[S+]([O-])Cc2ccc(C(=O)NC3CCC(C)CC3)o2)cc1 (centres undefined)
IC50 [13]: 13.8 µM (active)

CCN(CC)CCCNC(=O)c1cc(-c2ccc(Cl)c(Cl)c2)on1
IC50 [13]: 12.9 µM (active)

NS(=O)(=O)c1ccc(Cl)cc1[N+](=O)[O-]
IC50 [14]: > 50 µM (inactive)

Oc1ccccc1-c1nc(NCc2ccccc2)c2ccccc2n1
EC50 [1]: > 99 µM (inactive) | EC50 [2]: > 99 µM (inactive)

Cc1ccc(-n2c(C)nn(Cc3ccc([N+](=O)[O-])cc3)c2=O)cc1
IC50 [10]: > 83.4 µM (inactive) | IC50 [11]: > 109 µM (inactive)

O=C(Nc1ccc(Cl)c(C(F)(F)F)c1)N1CCCC(O)C1 (centres undefined)
IC50 [14]: > 50 µM (inactive)

Cn1nnnc1Sc1ncnc2scc(-c3cccc(C(F)(F)F)c3)c12
AC50 [4]: 5.97 µM (active) | AC50 [5]: 16.4 µM (active) | AC50 [6]: 6.18 µM (active) | AC50 [7]: 9.08 µM (active) | AC50 [8]: 10.1 µM (active) | AC50 [15]: 3.41 µM (active)

CCC(=O)NC(C)C(c1cccs1)N1CCOCC1 (centres undefined)
IC50 [10]: > 83.3 µM (inactive) | IC50 [11]: > 109 µM (inactive)

CC(=O)NS(=O)(=O)c1ccc(NC(=S)NC(=O)c2ccco2)cc1
IC50 [14]: > 50 µM (inactive)

CN(C)S(=O)(=O)c1cccc(NC(=O)COC(=O)COc2ccc(Br)cc2)c1
IC50 [10]: > 83.3 µM (inactive) | IC50 [11]: > 109 µM (inactive)

O=C(Nc1ccc(S(=O)(=O)Nc2cnc3ccccc3n2)cc1)c1cc(F)c(F)cc1Cl
IC50 [13]: 12.1 µM (active)

COc1cc(C(N)=O)cc(Cl)c1OC
IC50 [14]: > 50 µM (inactive)

O=C(O)COc1ccc(NC(=O)c2cccs2)cc1
IC50 [10]: > 83.3 µM (inactive) | IC50 [11]: > 109 µM (inactive)

CC/C(C)=N/NS(=O)(=O)c1ccc(C)c([N+](=O)[O-])c1
EC50 [1]: 7.91 µM (active) | EC50 [2]: > 99 µM (inactive)

CC(/C=C/c1ccco1)=N\NC(=O)CNc1ccc2ccccc2c1
IC50 [16]: > 50 µM (not active)

CC(C)CCNC(=O)c1cc(-c2ccc(Cl)cc2Cl)n[nH]1
IC50 [17]: > 10 µM (inconclusive)
